Data taken from US6825018B1, “Sorbitol dehydrogenase, gene encoding the same and use thereof” (priority 1999, dated 2004).

What was measured:
Type in all cases: biochemical, Gluconobacter oxydans G624
His-tagged SLDH [1] = biological target: T1, His-tagged SLDH (Gluconobacter oxydans, UniProt Q9KWR5); assay: SLDH activity: substrate specificity; conditions: glycine/NaOH buffer pH 10.1, coenzyme NADP+; for Activity: substrate varied
His-tagged SLDH [2] = biological target: T1, His-tagged SLDH; assay: SLDH activity: coenzyme dependency and active pH range (increase in NAD(P)H, absorbance at 340 nm); conditions: for Activity: substrate sorbitol, 25° C., coenzyme varied
Description: To a solution containing 0.1 ml of 50 mM NAD^+ (or NADP^+), 0.2 ml of 500 mM buffer, 10 μl of His-tagged SLDH solution (2.1 μg protein) prepared in Example 2(4) and distilled water (0.29 ml) was added to 500 mM sorbitol (0.4 ml) to start the reaction (25° C.), and increase in NADH (or NADPH) was measured by a spectrophotometer (UV-2200; Shimadzu) based on absorbance at 340 nm as an index. For the reaction solutions having pH 10.1 and pH 9.0, glycine/NaOH buffer was used, and for reaction solutions having pH 8.0 and pH 7.0, potassium phosphate buffer was used. The enzyme activity (1 unit) was defined to be an amount to generate 1 μmol of NADH (or NADPH) per minute. The molecular extinction coefficient of NAD(P)H was 6.3 mM^−1 cm^−1. The protein amount was measured with bovine serum albumin (BSA) as a standard by the Lowry method.

His-tagged SLDH [3] = biological target: T1, His-tagged SLDH; assay: Confirmation of SLDH activity: reaction of purified His-tagged SLDH with sorbitol, product analysis; conditions: 10 mM (1.82 mg/ml) sorbitol, pH 10.1, 5 mM NADP^+, 25° C., 24 hours
Description: In the same manner as in the above-mentioned (2) except that the cell-free extract to be applied was by 10 ml, the resin after His-tagged SLDH adsorption was washed 6 times, and His-tagged SLDH was eluted with 50 mM imidazole and 100 mM NaCl-containing 20 mM Tris-HCl (5 ml, pH 8.0), His-tagged SLDH was purified. The obtained His-tagged SLDH was reacted with sorbitol and the resulting product was analyzed. The composition of the reaction solution (2 ml) was 10 mM (1.82 mg/ml) sorbitol, 0.1 M glycine/NaOH buffer (pH 10.1), 5 mM NADP^+ and His-tagged SLDH 0.2 ml (41.4 μg protein) and the reaction was carried out at 25° C. for 24 hours. […] Thus, His-tagged SLDH purified by cobalt type IMAC was confirmed to be sorbitol dehydrogenase that oxidizes sorbitol and generates sorbose.

[4] = pH 7.0, potassium phosphate buffer
[5] = pH 8.0, potassium phosphate buffer

T1 sequence (Q9KWR5 entry or part of it): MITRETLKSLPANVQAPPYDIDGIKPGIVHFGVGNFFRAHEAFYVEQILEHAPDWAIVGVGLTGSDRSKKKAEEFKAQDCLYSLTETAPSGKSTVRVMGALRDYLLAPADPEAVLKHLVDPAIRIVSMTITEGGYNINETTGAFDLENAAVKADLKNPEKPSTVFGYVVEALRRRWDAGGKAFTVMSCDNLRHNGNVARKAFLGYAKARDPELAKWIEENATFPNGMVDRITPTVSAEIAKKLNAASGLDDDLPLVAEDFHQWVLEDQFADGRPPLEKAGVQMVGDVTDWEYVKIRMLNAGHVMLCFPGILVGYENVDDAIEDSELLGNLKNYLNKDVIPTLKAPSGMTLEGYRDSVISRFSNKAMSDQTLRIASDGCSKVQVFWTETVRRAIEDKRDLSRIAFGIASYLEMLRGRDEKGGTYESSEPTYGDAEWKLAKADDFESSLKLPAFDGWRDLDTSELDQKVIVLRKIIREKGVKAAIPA

| SMILES | Use as substrate by SLDH (in words) (His-tagged SLDH [1]) | Activity (His-tagged SLDH [1]) [U/mg protein] | also measured |
| --- | --- | --- | --- |
| OC[C@@H](O)[C@@H](O)[C@H](O)[C@H](O)CO [mannitol] | could utilize | 85.7 | – |
| OC[C@@H](O)C(O)[C@H](O)CO [arabitol] | could utilize | 88.1 | – |
| NC(=O)c1ccc[n+]([C@@H]2O[C@H](COP(=O)([O-])OP(=O)(O)OC[C@H]3O[C@@H](n4cnc5c(N)ncnc54)[C@H](O)[C@@H]3O)[C@@H](O)[C@H]2O)c1 [NAD^+] | – | – | Activity (His-tagged SLDH [2]; [4]): 0.1 U/mg protein; Activity (His-tagged SLDH [2]; [5]): 1.2 U/mg protein; Activity (His-tagged SLDH [2]; pH 9.0, glycine/NaOH buffer): 3.4 U/mg protein; Activity (His-tagged SLDH [2]; pH 10.1, glycine/NaOH buffer): 8.1 U/mg protein |
| OCC(O)CO [glycerol] | no action | 0 | – |
| O[C@H]1[C@H](O)[C@@H](O)[C@H](O)[C@@H](O)[C@H]1O [inositol] | no action | 0 | – |
| NC(=O)c1ccc[n+]([C@@H]2O[C@H](COP(=O)([O-])OP(=O)(O)OC[C@H]3O[C@@H](n4cnc5c(N)ncnc54)[C@H](OP(=O)(O)O)[C@@H]3O)[C@@H](O)[C@H]2O)c1 [NADP^+] | – | – | Coenzyme specificity (in words) (His-tagged SLDH [2]; NAD^+ versus NADP^+ as coenzyme): higher specificity; Activity (His-tagged SLDH [2]; [4]): 4.2 U/mg protein; Activity (His-tagged SLDH [2]; [5]): 22.9 U/mg protein; Activity (His-tagged SLDH [2]; pH 9.0, glycine/NaOH buffer): 30.0 U/mg protein; Activity (His-tagged SLDH [2]; pH 10.1, glycine/NaOH buffer): 130.2 U/mg protein |
| OC[C@@H](O)[C@H](O)[C@@H](O)CO [xylitol] | no action | 0 | – |
| O=C(CO)[C@H](O)[C@@H](O)[C@H](O)CO [sorbose] | – | – | sorbose generated (His-tagged SLDH [3]): 1.12 mg/mL |
| OC[C@@H](O)[C@@H](O)[C@H](O)[C@@H](O)CO [sorbitol] | – | 130.2 | conversion efficiency (sorbitol to sorbose) (His-tagged SLDH [3]; 41.4 μg protein): 62%; sorbitol remaining (His-tagged SLDH [3]): 0.70 mg/mL |
| OC[C@@H](O)[C@@H](O)[C@@H](O)CO [ribitol] | no action | 0 | – |
